Assay results reported in patent US20080176909A1, “Methods for prevention and treatment of arteriosclerosis, hypertension and restenosis” (DAIICHI SANKYO COMPANY, LIMITED, priority 2003, published 2008).

Legend:
[1] = system: apolipoprotein E (ApoE) knock out mice; experiment: Antihypertensive effects, systolic blood pressure on high fatty diet; assay type: in vivo; conditions: for Systolic blood pressures: 3 mg/kg of each agent oral for 24 weeks, measured 21 to 24 hours after administration in the 23rd week, mean±S.E.; for hypotensive effects: 3 mg/kg of each agent, Dunnett's multiple comparison test
Procedure: Male apolipoprotein E (ApoE) knock out mice aged 12 weeks were divided into 4 groups (15 mice per group) as following: control group (0.5% carboxymethylcellulose (CMC) solution administered group), olmesartan medoxomil (3 mg/kg) administered group, azelnidipine (3 mg/kg) administered group, and olmesartan medoxomil (3 mg/kg) plus azelnidipine (3 mg/kg) administered group. Either test substance or vehicle (0.5% CMC solution) was orally administered to animals for 24 successive weeks. A high fatty diet (containing 0.15% cholesterol and 15% unsalted butter) was given to all mice in all groups following the start of test agent administration (12 weeks of age). The systolic blood pressure of all mice was measured by a non-preheating type blood pressure monitor (BP MONITOR FOR RATS & MICE, Model MK-2000, Muromachi Kikai Co., Ltd.) at 21 to 24 hours after drug administration in the 23rd week. The results are shown in Table 3 (values in the table indicate mean±S.E.).

[2] = system: cuff-induced vascular damage model of wild-type mice (femoral artery); experiment: Cuff-induced vascular injury model: DNA synthesis (BrdU index) and neointima formation; assay type: in vivo; conditions: for effects on blood pressure: azelnidipine 0.1 to 1.0 mg/kg/day, olmesartan 0.5 to 3.0 mg/kg/day
Procedure: C57BL/6 mice aged 10 weeks were used. In a part of this study, AT1a receptor gene knock out (AT1aKO) mice were also used. Inflammatory vascular damage was induced in mice by loosely placing a polyethylene tube which was cut longitudinally to open the tube, around the femoral artery of mice. In the damaged artery, the following observations were determined. The usefulness of this model of vascular damage to analyze vascular remodeling has been previously reported (Physiol. Genomics., 2, pp. 13-30, 2000; Circulation, 104, pp. 2716-2721, 2001; Circulation, 106, pp. 847-853, 2002).
A paraffin-embedded section of the damaged artery was prepared 14 days after cuff placement, Elastica van Gieson staining was carried out, and the cross-sectional area of the neointima and tunica media of the blood vessels was determined by image analysis software. For quantification of DNA synthesis, bromodeoxyuridine (BrdU) was injected into the mice 7 days after cuff placement and BrdU index calculated from incorporation into the nuclei of the cells was calculated.
(§1) (3) Olmesartan, an AT1 receptor blocker, was intraperitoneally injected into wild-type mice by an osmotic minipump, and the dose-dependency of olmesartan was investigated as described in (2). Oral administration of azelnidipine to the wild-type mice was started after cuff placement, and dose-dependency of azelnidipine was investigated as described in (2). (4) Both olmesartan and azelnidipine were simultaneously administered to wild-type mice, and the effects of co-administration of olmesartan and azelnidipine were compared with those of administration of either olmesartan or azelnidipine alone as described in (2). Effects of olmesartan and azelnidipine were investigated at effective doses of either olmesartan or azelnidipine alone and at insufficient doses to elicit significant effects by either olmesartan or azelnidipine alone, so as to determine synergistic effects of these two agents. (5) By using cultured rat vascular smooth muscle cells, the effects of co-treatment of olmesartan and azelnidipine on facilitation of DNA synthesis following stimulation by angiotensin II (determined by incorporation of [^3H]thymidine) were investigated.

[3] = system: cultured rat vascular smooth muscle cells; experiment: DNA synthesis ([3H]thymidine incorporation) following stimulation by angiotensin II; assay type: cell-based; conditions: for DNA synthesis of cultured rat vascular smooth muscle cells: low doses, alone or co-administered
Source text: as §1

[4] = low doses: 0.1 mg/kg/day azelnidipine, 0.5 mg/kg/day olmesartan, alone or at the same time

| SMILES | Systolic blood pressures [1] [mmHg] | hypotensive effects [1] | effects on blood pressure [2] | increase in DNA synthesis of vascular smooth muscle cells (BrdU index) [2, 4] | potentiation of neointima formation in the blood vessels [2, 4] | DNA synthesis of cultured rat vascular smooth muscle cells [3] | increase in DNA synthesis of vascular smooth muscle cells (BrdU index) ([2]; dose range: azelnidipine 0.1 to 1.0 mg/kg/day oral, olmesartan 0.5 to 3.0 mg/kg/day intraperitoneal osmotic minipump, 7 days after cuff placement) | potentiation of neointima formation in the blood vessels ([2]; dose range: azelnidipine 0.1 to 1.0 mg/kg/day oral, olmesartan 0.5 to 3.0 mg/kg/day intraperitoneal osmotic minipump, 14 days after cuff placement) | facilitation of DNA synthesis following stimulation by angiotensin II ([3]; concentration dependence, [3H]thymidine incorporation) |
| --- | --- | --- | --- | --- | --- | --- | --- | --- | --- |
| CCCc1nc(C(C)(C)O)c(C(=O)OCc2oc(=O)oc2C)n1Cc1ccc(-c2ccccc2-c2nnn[nH]2)cc1 [Olmesartan medoxomil, (5-methyl-2-oxo-1,3-dioxolen-4-yl)methyl 4-(1-hydroxy-1-methylethyl)-2-propyl-1-[[2′-(1H-tetrazol-5-yl)biphenyl-4-yl]methyl]imidazol-5-carboxylate] | 121 ± 4 | did not elicit any significant effects | without any effects on blood pressure | did not elicit any significant effects | did not elicit any significant effects | insufficient to elicit any effects alone |  |  |  |
| CC1=C(C(=O)OC(C)C)C(c2cccc([N+](=O)[O-])c2)C(C(=O)OC2CN(C(c3ccccc3)c3ccccc3)C2)=C(N)N1 (racemic) [Azelnidipine, (±)-2-amino-1,4-dihydro-6-methyl-4-(3-nitrophenyl)-3,5-pyridine-dicarboxylate-3-(1-diphenylmethylazetidin-3-yl)ester 5-isopropylester] | 127 ± 4 | did not elicit any significant effects | without any effects on blood pressure | did not elicit any significant effects | did not elicit any significant effects | insufficient to elicit any effects alone | inhibited by azelnidipine in a dose-dependent manner | inhibited by azelnidipine in a dose-dependent manner | suppressed by administration of azelnidipine in a concentration-dependent manner |
